Data from patent publication US20090232913A1, “Composition for the Control of Cholesterol Levels” (priority 2005, published 2009).
Entries after “also recorded” stand apart in the source; their conditions may differ.

Key:
[1] = system: diabetic rats; assay: Serum cholesterol concentrations after 7 day oral treatment of diabetic rats (lovastatin, MKH, combination); format: in vivo; conditions: for Effect on total cholesterol: 7 day oral dosage; for Effect on HDL levels: 7 days, MKH at 2 mg/kg
Description: This is significant as HDLs are protective against heart disease (Despres et al., 2000, Atherosclerosis 153: 263-272). […] This is important as low LDL levels are associated with decreased risk of heart disease.

[2] = system: diabetic Wistar rats; assay: Blood glucose and OGTT in alloxan-induced diabetic rats; format: in vivo; conditions: 5 days oral treatment
Method: In this study white, adult male Wistar rats with average weights between 200 to 300 grams were used. During the study, the animals had free access to food and water and were exposed to changes of dark and light every 12 hours. Access to the food was restricted 12 hours before measurement of glucose blood level with free access to water. The experiment was performed on a normoglycaemic group (Group 1, 32 rats, 8 per treatment) and diabetic rats (Group 2, 32 rats, 8 per treatment). For the diabetic rat experiments diabetes was induced with intraperitoneal injection of alloxan 100 mg/kg. Alloxan is very well verified diabetogenic substance for inducing diabetes in rats and other animal species (rabbit, dog, mice et […]). See, for example, […]. Coil Physicians Edinb, 32: 134-142, 2002; […], Diabetologia, 31: 337-342, 1988; Shaw et al., Lancet, 11: 384-386, 1943; Goldner & Gomori, Endocrinology, 35: 241-268, 1943. 1). Saline solution, 1 ml/kg, per orally, daily for 5 days (control group); 2). Stevioside, 20 mg/kg, orally, daily for 5 days; 3). […] In the diabetic rat the criterion for successful diabetes induction was blood glucose greater than 20 mmol/L on the third day after the last alloxan dose after 3 hours of fasting with free access to water. […] Glucose blood concentrations were measured before the treatment, after the 5th dose, before OGTT, and 30 minutes after OGTT. […]

[3] = system: normoglycaemic rats; assay: C peptide serum concentration in normoglycaemic rats; format: in vivo, Wistar rats; conditions: non-diabetic rats; treatment for 5 days
Method: In this study white, adult male Wistar rats with average weights between 200 to 300 grams were used. During the study, the animals had free access to food and water and were exposed to changes of dark and light every 12 hours. Access to the food was restricted 12 hours before measurement of glucose blood level with free access to water. The experiment was performed on a normoglycaemic group (Group 1, 32 rats, 8 per treatment) and diabetic rats (Group 2, 32 rats, 8 per treatment). For the diabetic rat experiments diabetes was induced with intraperitoneal injection of alloxan 100 mg/kg. Alloxan is very well verified diabetogenic substance for inducing diabetes in rats and other animal species (rabbit, dog, mice et […]). See, for example, […]. Coil Physicians Edinb, 32: 134-142, 2002; […], Diabetologia, 31: 337-342, 1988; Shaw et al., Lancet, 11: 384-386, 1943; Goldner & Gomori, Endocrinology, 35: 241-268, 1943. 1). Saline solution, 1 ml/kg, per orally, daily for 5 days (control group); 2). Stevioside, 20 mg/kg, orally, daily for 5 days; 3). […] 15 minutes after the 5th dose, the animals were exposed to an oral glucose tolerance test (OGTT) using 4 g/kg, orally. Glucose blood concentrations were measured before the treatment, after the 5th dose, before OGTT, and 30 minutes after OGTT. […] The following were measured in serum: 1). […]

[4] = system: normoglycaemic rats; assay: Serum cholesterol and lipid profile in normoglycaemic rats after 5 days treatment; format: in vivo, Wistar rats; conditions: for Changes in HDL serum cholesterol concentrations / Changes in total cholesterol in serum concentrations / LDL serum cholesterol concentrations relative to control values: normoglycaemic / non-diabetic rats, 5 days treatment
Method: In this study white, adult male Wistar rats with average weights between 200 to 300 grams were used. During the study, the animals had free access to food and water and were exposed to changes of dark and light every 12 hours. Access to the food was restricted 12 hours before measurement of glucose blood level with free access to water. The experiment was performed on a normoglycaemic group (Group 1, 32 rats, 8 per treatment) and diabetic rats (Group 2, 32 rats, 8 per treatment). For the diabetic rat experiments diabetes was induced with intraperitoneal injection of alloxan 100 mg/kg. Alloxan is very well verified diabetogenic substance for inducing diabetes in rats and other animal species (rabbit, dog, mice et […]). See, for example, […]. Coil Physicians Edinb, 32: 134-142, 2002; […], Diabetologia, 31: 337-342, 1988; Shaw et al., Lancet, 11: 384-386, 1943; Goldner & Gomori, Endocrinology, 35: 241-268, 1943. 1). Saline solution, 1 ml/kg, per orally, daily for 5 days (control group); 2). Stevioside, 20 mg/kg, orally, daily for 5 days; 3). […] 15 minutes after the 5th dose, the animals were exposed to an oral glucose tolerance test (OGTT) using 4 g/kg, orally. Glucose blood concentrations were measured before the treatment, after the 5th dose, before OGTT, and 30 minutes after OGTT. Then the animals were anaesthetised with urethane injected intraperitoneally, 750 mg/kg, and blood samples for further biochemical analyses were taken by cardiopunction. All biochemical analyses of serum were done by standard procedures, as recommended by the International Federation for Clinical Chemistry (IFCC), on automatic spectrophotometer LISA 300 plus with International Quality Control. The following were measured in serum: 1). Triglycerides concentration (GPO-PAP kit obtained from Boehringer Mannheim GmbH (Mannheim, Germany) in accordance with the manufacturers instructions) 2). […] C-peptide concentration. […] Generally the desired outcome was a decrease in low density lipoprotein (LDL), with no concomitant decrease in high density lipoprotein (HDL). It was also hypothesised that there would be a compatibility with glycaemic effects shown in Example 2. The experimental procedures were essentially those described in Example 2.

[5] = system: diabetic rats; assay: Serum cholesterol and lipid profile in diabetic rats after 5 days treatment; format: in vivo, Wistar rats; conditions: for Effect on LDL cholesterol levels: treatment for 5 days
Method: In this study white, adult male Wistar rats with average weights between 200 to 300 grams were used. During the study, the animals had free access to food and water and were exposed to changes of dark and light every 12 hours. Access to the food was restricted 12 hours before measurement of glucose blood level with free access to water. The experiment was performed on a normoglycaemic group (Group 1, 32 rats, 8 per treatment) and diabetic rats (Group 2, 32 rats, 8 per treatment). For the diabetic rat experiments diabetes was induced with intraperitoneal injection of alloxan 100 mg/kg. Alloxan is very well verified diabetogenic substance for inducing diabetes in rats and other animal species (rabbit, dog, mice et […]). See, for example, […]. Coil Physicians Edinb, 32: 134-142, 2002; […], Diabetologia, 31: 337-342, 1988; Shaw et al., Lancet, 11: 384-386, 1943; Goldner & Gomori, Endocrinology, 35: 241-268, 1943. 1). Saline solution, 1 ml/kg, per orally, daily for 5 days (control group); 2). Stevioside, 20 mg/kg, orally, daily for 5 days; 3). […] In the diabetic rat the criterion for successful diabetes induction was blood glucose greater than 20 mmol/L on the third day after the last alloxan dose after 3 hours of fasting with free access to water. 15 minutes after the 5th dose, the animals were exposed to an oral glucose tolerance test (OGTT) using 4 g/kg, orally. Glucose blood concentrations were measured before the treatment, after the 5th dose, before OGTT, and 30 minutes after OGTT. Then the animals were anaesthetised with urethane injected intraperitoneally, 750 mg/kg, and blood samples for further biochemical analyses were taken by cardiopunction. All biochemical analyses of serum were done by standard procedures, as recommended by the International Federation for Clinical Chemistry (IFCC), on automatic spectrophotometer LISA 300 plus with International Quality Control. The following were measured in serum: 1). Triglycerides concentration (GPO-PAP kit obtained from Boehringer Mannheim GmbH (Mannheim, Germany) in accordance with the manufacturers instructions) 2). […] C-peptide concentration. […] Generally the desired outcome was a decrease in low density lipoprotein (LDL), with no concomitant decrease in high density lipoprotein (HDL). It was also hypothesised that there would be a compatibility with glycaemic effects shown in Example 2. The experimental procedures were essentially those described in Example 2.

[6] = system: diabetic rats; assay: C peptide serum concentration in diabetic rats; format: in vivo, Wistar rats; conditions: treatment for 5 days
Method: In this study white, adult male Wistar rats with average weights between 200 to 300 grams were used. During the study, the animals had free access to food and water and were exposed to changes of dark and light every 12 hours. Access to the food was restricted 12 hours before measurement of glucose blood level with free access to water. The experiment was performed on a normoglycaemic group (Group 1, 32 rats, 8 per treatment) and diabetic rats (Group 2, 32 rats, 8 per treatment). For the diabetic rat experiments diabetes was induced with intraperitoneal injection of alloxan 100 mg/kg. Alloxan is very well verified diabetogenic substance for inducing diabetes in rats and other animal species (rabbit, dog, mice et […]). See, for example, […]. Coil Physicians Edinb, 32: 134-142, 2002; […], Diabetologia, 31: 337-342, 1988; Shaw et al., Lancet, 11: 384-386, 1943; Goldner & Gomori, Endocrinology, 35: 241-268, 1943. 1). Saline solution, 1 ml/kg, per orally, daily for 5 days (control group); 2). Stevioside, 20 mg/kg, orally, daily for 5 days; 3). […] Glucose blood concentrations were measured before the treatment, after the 5th dose, before OGTT, and 30 minutes after OGTT. […] The following were measured in serum: 1). […]

Compound | Effect on total cholesterol [1] | Effect on HDL levels ([1]; Lovastatin 20 mg/kg) | Effect on glucose levels both before and after the OGTT [2] | Effect on C peptide levels [3] | Changes in HDL serum cholesterol concentrations [4] | Changes in total cholesterol in serum concentrations [4] | LDL serum cholesterol concentrations relative to control values [4] | LDL: HDL Ratio (ratios of means) ([4]; normoglycaemic rats, n = 8, after 5 days treatment) | Changes in total cholesterol in serum concentrations ([5]; 5 days treatment) | Effect on LDL:HDL ratio ([5]; 5 days treatment) | Effect on HDL levels ([5]; 5 days, MKH at 4 mg/kg) | LDL: HDL Ratio (ratios of means) ([5]; n = 8, after 5 days treatment) | Effect on LDL cholesterol levels [5] | Effect on LDL levels ([1]; 7 days oral treatment, MKH 2 mg/kg, Lovastatin 20 mg/kg) | Effect on LDL:HDL ratio ([1]; by Day 7) | Effect on C-peptide [6]
CC[C@H](C)C(=O)O[C@H]1C[C@@H](C)C=C2C=C[C@H](C)[C@H](CC[C@@H]3C[C@@H](O)CC(=O)O3)[C@H]21 [Lovastatin, reference compound] | reduced total cholesterol by a similar amount | reduced HDLs significantly |  |  |  |  |  |  |  |  |  |  |  |  |  | 
C[C@H](CCC(=O)O)[C@H]1CC[C@H]2[C@@H]3[C@H](O)C[C@@H]4C[C@H](O)CC[C@]4(C)[C@H]3CC(=O)[C@]12C [MKH, 3α,7α-dihydroxy-12-oxo-5β-cholanate] | reduced total cholesterol by a similar amount | this effect was not observed; also recorded: did not do so | significant decrease in glucose levels | Neither stevioside or 3α,7α-dihydroxy-12-oxo-5β-cholanate alone had statistically significant effects | no significant changes | no significant changes | significantly decreased (one third of control values) | 0.01 | no significant changes | slight increase in LDL:HDL ratio | A decrease was observed | 1.12 | decreases in LDL levels and while these were not statistically significant | very highly significant decrease in LDL levels; also recorded: significantly greater than that achieved by Lovastatin | significant decrease in the LDL:HDL ratio | 
C=C1C[C@@]23CC[C@H]4[C@@](C)(CCC[C@@]4(C)C(=O)O[C@@H]4O[C@H](CO)[C@@H](O)[C@H](O)[C@H]4O)[C@@H]2CC[C@]1(O[C@@H]1O[C@H](CO)[C@@H](O)[C@H](O)[C@H]1O[C@@H]1O[C@H](CO)[C@@H](O)[C@H](O)[C@H]1O)C3 [Stevioside, stevioside] |  |  |  | Neither stevioside or 3α,7α-dihydroxy-12-oxo-5β-cholanate alone had statistically significant effects | no significant changes | no significant changes | significantly decreased (one third of control values) |  | no significant changes |  |  |  | highly significant decrease in LDL cholesterol levels |  |  | significant increases in C-peptide
